The source of these data is BindingDB's records for doi:10.1016/s0960-894x(01)00002-6 (Kyushu University, 2001).

The target in the assay is DNA polymerase I (Escherichia coli) (UniProt P00582). The assay can be described thus: Compound was evaluated for its inhibitory activity against Klenow enzyme.
Chain of DNA polymerase I (Escherichia coli) (P00582 whole entry, looked up): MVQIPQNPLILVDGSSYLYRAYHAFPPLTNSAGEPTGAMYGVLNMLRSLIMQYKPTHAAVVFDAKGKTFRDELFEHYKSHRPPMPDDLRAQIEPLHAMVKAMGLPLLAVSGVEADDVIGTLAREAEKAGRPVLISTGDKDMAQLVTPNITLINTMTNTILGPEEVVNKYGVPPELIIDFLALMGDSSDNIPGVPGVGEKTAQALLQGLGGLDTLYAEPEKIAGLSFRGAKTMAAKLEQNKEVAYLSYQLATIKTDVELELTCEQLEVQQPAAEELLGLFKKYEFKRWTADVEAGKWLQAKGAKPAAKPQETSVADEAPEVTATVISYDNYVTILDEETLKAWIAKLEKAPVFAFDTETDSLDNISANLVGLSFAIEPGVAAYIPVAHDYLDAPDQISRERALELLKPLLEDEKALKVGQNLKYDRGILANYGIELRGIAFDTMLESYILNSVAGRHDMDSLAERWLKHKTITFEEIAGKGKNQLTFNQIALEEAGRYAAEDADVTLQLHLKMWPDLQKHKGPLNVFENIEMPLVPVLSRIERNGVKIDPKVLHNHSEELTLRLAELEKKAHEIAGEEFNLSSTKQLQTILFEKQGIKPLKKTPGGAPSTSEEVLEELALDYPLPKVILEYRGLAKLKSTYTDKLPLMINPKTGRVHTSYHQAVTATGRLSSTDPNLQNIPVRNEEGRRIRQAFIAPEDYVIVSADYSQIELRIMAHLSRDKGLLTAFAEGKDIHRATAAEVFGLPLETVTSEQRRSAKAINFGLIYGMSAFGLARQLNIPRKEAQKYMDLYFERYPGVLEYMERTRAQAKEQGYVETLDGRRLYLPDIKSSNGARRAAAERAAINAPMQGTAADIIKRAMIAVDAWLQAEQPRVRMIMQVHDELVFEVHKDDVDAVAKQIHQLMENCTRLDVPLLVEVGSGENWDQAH

On to `O=C(Cc1cn(CCn2ccc3cc(Cl)ccc32)c2ccccc12)NCCCCCCCCCCCCOP(=O)(O)Oc1ccccc1` [Phosphoric acid 12-(2-{1-[2-(5-chloro-indol-1-yl)-ethyl]-1H-indol-3-yl}-acetylamino)-dodecyl ester phenyl ester; compound with triethyl-amine], for which it took 61 µM to reach half-maximal inhibition (IC50). Next, `O=C(Cc1cn(CCn2ccc3cc(Cl)ccc32)c2ccccc12)NCCCCCCCCCCCCOP(=O)(O)Oc1cccc(Cl)c1` [Phosphoric acid 12-(2-{1-[2-(5-chloro-indol-1-yl)-ethyl]-1H-indol-3-yl}-acetylamino)-dodecyl ester 3-chloro-phenyl ester; compound with triethyl-amine]: 70 µM; `O=C(Cc1cn(CCn2ccc3cc(Cl)ccc32)c2ccccc12)NCCCCCCCCCCCCOP(=O)(O)OC1CCCCC1` [Phosphoric acid 12-(2-{1-[2-(5-chloro-indol-1-yl)-ethyl]-1H-indol-3-yl}-acetylamino)-dodecyl ester cyclohexyl ester; compound with triethyl-amine]: 101 µM.
